Like-named read-outs stand apart in the source and are kept apart here. Each block holds one compound with its values, some of them ahead of it. Non-standard residues stand in square brackets, D forms with d. Residues, ends and D or L forms follow the SMILES beside them. Phe(4-NH2) = Nc1ccc(C[C@H](N)C(=O)O)cc1; 1Nal = N[C@@H](Cc1cccc2ccccc12)C(=O)O; 2Nal = N[C@@H](Cc1ccc2ccccc2c1)C(=O)O; d(aIle) = CC[C@H](C)[C@@H](N)C(=O)O; 2Thi = N[C@@H](Cc1cccs1)C(=O)O; Cha = N[C@@H](CC1CCCCC1)C(=O)O; Cit = NC(=O)NCCC[C@H](N)C(=O)O; dTle = CC(C)(C)[C@@H](N)C(=O)O; Phg = N[C@H](C(=O)O)c1ccccc1; hSer = N[C@@H](CCO)C(=O)O
Key:
Assay type in all cases: biochemical
[1] = biological target: porcine pancreatic kallikrein (PPK) (Sus scrofa, UniProt P00752); assay: Inhibition of porcine pancreatic kallikrein, cleavage of chromogenic substrate S-2266 (KI)
[2] = biological target: human plasma kallikrein (HPK) (Homo sapiens, UniProt P03952); assay: Inhibition of human plasma kallikrein (KI)
Text: (§1) Assay methods were based on the cleavage of chromogenic substrate S-2266 (D-Val-Leu-Arg-pNA) (Kabi; Charlotte, N.C.) by porcine pancreatic kallikrein (Sigma Chemical Company; St. Louis, Mo.) to yield an increase in absorbance at 405 nm. By changing the substrate and enzyme, the general method has been extended to measure the inhibition of human tissue kallikrein (HTK or human urinary kallikrein HUK), human plasma kallikrein (HPK), plasmin, and urokinase (UK). In all assays, the robot dilutes the inhibitor into a series of wells and adds substrate and buffer. Chromogenic reactions are started by the addition of enzyme. Changes in the absorbance at 405 nm in an array of wells were recorded. All manipulations were performed by the instrument from reservoirs containing substrate, inhibitor, diluent (water), buffer, or enzyme.

[3] = biological target: T1, human urinary kallikrein (HUK) (Homo sapiens, UniProt P06870); assay: Inhibition of human urinary (tissue) kallikrein (KI); conditions: read-out: KI HUK
T1 construct: Human urinary kallikrein (HUK) was purified from human urine; from tissue
Description: Human urinary kallikrein (HUK) was purified from human urine. Briefly, urine was subjected to ultrafiltration to concentrate the protein components which were applied to approtinin-CH-Sepharose affinity columns. Active fractions from these columns were next applied to Sephadex G-100 gel filtration and collected as fractions. The pH of each fraction was determined immediately upon elution, and the fraction was neutralized by addition of 2.0 ml of 2M Tris-HCL buffer, pH 8.0. Porcine pancreatic 24-kallikrein (PPK), at 50 units/mg protein; 1.0 units hydrolyses 1.0 μM BAEE (benzoyl -L-arginine ethyl ester) to N-a-benzoyl-L-arginine/minute at pH 8.7 at 25° C., was purchased from Sigma Chemical Company (St. Louis, Mo.). […] All other enzymes were purchased from Sigma Chemical Company (St. Louis, Mo.).
Dixon plots were used for data reduction and for calculation of […].
as §1

[4] = Table 4, Pro-X-Arg-Ser-Val-Gln, read-out: KI PPK
[5] = Table 4, Pro-X-Arg-Ser-Val-Gln, read-out: KI HPK
[6] = Table 2, P3 substitutions, read-out: log KI (converted)

T1 sequence (P06870 25-262): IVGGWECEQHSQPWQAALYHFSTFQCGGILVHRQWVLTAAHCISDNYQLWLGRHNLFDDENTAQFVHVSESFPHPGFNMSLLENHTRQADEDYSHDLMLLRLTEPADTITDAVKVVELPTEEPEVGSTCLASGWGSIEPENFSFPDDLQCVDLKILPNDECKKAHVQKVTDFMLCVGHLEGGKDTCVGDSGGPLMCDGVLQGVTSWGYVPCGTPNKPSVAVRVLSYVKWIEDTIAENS
Chain of porcine pancreatic kallikrein (PPK) (P00752 8-87 limits assumed): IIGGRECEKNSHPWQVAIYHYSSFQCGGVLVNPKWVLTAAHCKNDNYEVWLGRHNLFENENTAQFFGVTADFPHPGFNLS
Chain of porcine pancreatic kallikrein (PPK) (P00752 95-246 limits assumed): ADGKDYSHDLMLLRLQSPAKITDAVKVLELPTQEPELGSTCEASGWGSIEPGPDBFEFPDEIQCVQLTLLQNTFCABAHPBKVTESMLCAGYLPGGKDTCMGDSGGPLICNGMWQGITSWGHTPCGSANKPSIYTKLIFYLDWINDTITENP
Chain of human plasma kallikrein (HPK) (P03952 20-638): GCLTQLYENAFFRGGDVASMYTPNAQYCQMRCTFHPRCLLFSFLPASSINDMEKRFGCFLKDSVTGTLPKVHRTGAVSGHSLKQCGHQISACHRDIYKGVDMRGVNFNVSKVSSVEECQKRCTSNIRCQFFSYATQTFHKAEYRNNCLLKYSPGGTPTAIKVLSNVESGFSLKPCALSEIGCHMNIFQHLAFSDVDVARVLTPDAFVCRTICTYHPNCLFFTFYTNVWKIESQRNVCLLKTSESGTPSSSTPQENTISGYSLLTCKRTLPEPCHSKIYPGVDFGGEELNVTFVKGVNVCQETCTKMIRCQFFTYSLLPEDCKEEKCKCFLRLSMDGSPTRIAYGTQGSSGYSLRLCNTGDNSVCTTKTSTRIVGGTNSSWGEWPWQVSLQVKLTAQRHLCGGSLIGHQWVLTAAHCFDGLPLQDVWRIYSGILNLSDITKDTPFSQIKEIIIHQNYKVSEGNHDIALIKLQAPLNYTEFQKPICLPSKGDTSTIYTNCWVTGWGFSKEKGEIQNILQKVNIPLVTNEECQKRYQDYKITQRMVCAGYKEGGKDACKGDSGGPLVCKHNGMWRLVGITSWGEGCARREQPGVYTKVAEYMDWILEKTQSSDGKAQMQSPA

- Ki [1, 4]: 0.133 mM
- Ki [2, 5]: 0.665 mM
- Ki ([3]; Table 4, Pro-X-Arg-Ser-Val-Gln): 114 µM
SMILES: CC(C)[C@H](NC(=O)[C@H](CO)NC(=O)[C@H](CCCNC(=N)N)NC(=O)[C@H](Cc1ccc2ccccc2c1)NC(=O)[C@@H]1CCCN1)C(=O)N[C@@H](CCC(N)=O)C(N)=O [KCH-6] (H-P[2Nal]RSVQ-NH2)

- Ki [1, 4]: 0.13 mM
- Ki [2, 5]: 0.516 mM
- Ki ([3]; Table 4, Pro-X-Arg-Ser-Val-Gln): 41 µM
SMILES: CC(C)[C@H](NC(=O)[C@H](CO)NC(=O)[C@H](CCCNC(=N)N)NC(=O)[C@H](Cc1cccc2ccccc12)NC(=O)[C@@H]1CCCN1)C(=O)N[C@@H](CCC(N)=O)C(N)=O [KCH-7] (H-P[1Nal]RSVQ-NH2)

- Ki [1, 6]: 0.0575 mM
SMILES: CC[C@H](C)[C@@H](N)C(=O)N[C@@H](Cc1ccccc1)C(=O)N[C@@H](CCCNC(=N)N)C(=O)N[C@@H](CO)C(=O)N[C@H](C(=O)N[C@@H](CCC(N)=O)C(N)=O)C(C)C [KKI-105] (H-[d(aIle)]FRSVQ-NH2)

- Ki ([1]; Table 6, read-out: KI PPK): 0.06 mM
- Ki ([2]; Table 6, HUK, read-out: KI HUK): 0.49 mM
- Ki ([3]; Table 6, first HUK column): 54 µM
SMILES: N=C(N)NCCC[C@H](NC(=O)[C@H](CO)NC(=O)[C@H](CO)NC(=O)[C@H](CCCNC(=N)N)NC(=O)[C@H](Cc1ccccc1)NC(=O)[C@@H]1CCCN1)C(N)=O [Pro-Phe-Arg-Ser-Ser-Arg] (H-PFRSSR-NH2)

- Ki ([2]; Table 6, HUK, read-out: KI HUK): 1.57 mM
SMILES: CC(C)[C@H](N)C(=O)N[C@@H](Cc1ccccc1)C(=O)N[C@@H](CCCNC(=N)N)C(=O)N[C@@H](CC(N)=O)C(=O)N[C@H](CCCNC(=N)N)C(=O)N[C@@H](CCC(N)=O)C(N)=O [Val-Phe-Arg-Asn-dArg-Gln] (H-VFRN[dR]Q-NH2)

- Ki [1, 4]: 0.109 mM
- Ki [2, 5]: 0.497 mM
- Ki ([3]; Table 4, Pro-X-Arg-Ser-Val-Gln): 249 µM
SMILES: CC(C)[C@H](NC(=O)[C@H](CO)NC(=O)[C@H](CCCNC(=N)N)NC(=O)[C@H](Cc1cccs1)NC(=O)[C@@H]1CCCN1)C(=O)N[C@@H](CCC(N)=O)C(N)=O [KCH-4] (H-P[2Thi]RSVQ-NH2)

- Ki ([1]; Table 7, read-out: K1 PPK): 0.027 mM
SMILES: Nc1ccc(C[C@@H](C=O)NC(=O)[C@H](Cc2ccccc2)NC(=O)[C@@H]2CCCN2C(=O)[C@@H](N)Cc2ccccc2)cc1 [KITSD-1, Phe-Pro-Phe-Phe(4NH2)-aldehyde] (H-FPF[Phe(4-NH2)]-aldehyde)

- Ki [1, 4]: 1.32 mM
- KI HPK ([2]; Table 4, Pro-X-Arg-Ser-Val-Gln): ni
SMILES: CC(C)[C@H](NC(=O)[C@H](CO)NC(=O)[C@H](CCCNC(=N)N)NC(=O)[C@@H](NC(=O)[C@@H]1CCCN1)c1ccccc1)C(=O)N[C@@H](CCC(N)=O)C(N)=O [KCH-5] (H-P[Phg]RSVQ-NH2)

- Ki ([2]; Table 6, HUK, read-out: KI HUK): 0.194 mM
SMILES: CC(C)[C@H](N)C(=O)N[C@@H](Cc1ccccc1)C(=O)N[C@@H](CCCNC(=N)N)C(=O)N[C@@H](CC(N)=O)C(=O)N[C@@H](CO)C(=O)N[C@@H](CCCNC(=N)N)C(N)=O [Val-Phe-Arg-Asn-Ser-Arg] (H-VFRNSR-NH2)

- Ki [1, 6]: 0.0794 mM
SMILES: CC(C)[C@H](NC(=O)[C@H](CO)NC(=O)[C@H](CCCNC(=N)N)NC(=O)[C@H](Cc1ccccc1)NC(=O)CN)C(=O)N[C@@H](CCC(N)=O)C(N)=O [KKI-80, Gly-Phe-Arg-Ser-Val-Gln] (H-GFRSVQ-NH2)

- Ki ([1]; Table 5, Pro-Phe-Arg-X-Val-Gln, read-out: KI PPK): 0.163 mM
- Ki ([2]; Table 5, Pro-Phe-Arg-X-Val-Gln, read-out: KI HPK): 0.359 mM
SMILES: CC(C)[C@H](NC(=O)[C@H](CCO)NC(=O)[C@H](CCCNC(=N)N)NC(=O)[C@H](Cc1ccccc1)NC(=O)[C@@H]1CCCN1)C(=O)N[C@@H](CCC(N)=O)C(N)=O [Hse] (H-PFR[hSer]VQ-NH2)

- Ki [1, 4]: 0.085 mM
- Ki [2, 5]: 0.813 mM
- Ki ([3]; Table 4, Pro-X-Arg-Ser-Val-Gln): 92 µM
SMILES: CC(C)[C@H](NC(=O)[C@H](CO)NC(=O)[C@H](CCCNC(=N)N)NC(=O)[C@H](CC1CCCCC1)NC(=O)[C@@H]1CCCN1)C(=O)N[C@@H](CCC(N)=O)C(N)=O [KCH-10] (H-P[Cha]RSVQ-NH2)

- Ki [1, 4]: 0.23 mM
- Ki [2, 5]: 0.449 mM
SMILES: CC(C)[C@H](NC(=O)[C@H](CO)NC(=O)[C@H](CCCNC(=N)N)NC(=O)[C@H](Cc1c[nH]c2ccccc12)NC(=O)[C@@H]1CCCN1)C(=O)N[C@@H](CCC(N)=O)C(N)=O [KCH-11] (H-PWRSVQ-NH2)

- Ki [1, 6]: 0.0759 mM
SMILES: CC(C)[C@H](NC(=O)[C@H](CO)NC(=O)[C@H](CCCNC(=N)N)NC(=O)[C@H](Cc1ccccc1)NC(=O)[C@H](N)C(C)(C)C)C(=O)N[C@@H](CCC(N)=O)C(N)=O [KKI-84, [D-t-BuGly]-Phe-Arg-Ser-Val-Gln] (H-[dTle]FRSVQ-NH2)

- Ki ([1]; Table 7, in mM, read-out: K1 PPK): > 3 mM
- Ki ([2]; Table 7, in mM, read-out: K1 HPK): > 5 mM
SMILES: CC(C)[C@H](NC(=O)[C@H](CO)NC(=O)[C@H](CCCNC(N)=O)NC(=O)[C@H](Cc1ccccc1)NC(=O)[C@@H]1CCCN1)C(=O)N[C@@H](CCC(N)=O)C(N)=O [KIDZ-7, Pro-Phe-Cit-Ser-Val-Gln] (H-PF[Cit]SVQ-NH2)
